Assay [1] concerns the target T1, 64 kDa MMP-2 (Homo sapiens, UniProt P08253).
T1 sequence (P08253 110-660): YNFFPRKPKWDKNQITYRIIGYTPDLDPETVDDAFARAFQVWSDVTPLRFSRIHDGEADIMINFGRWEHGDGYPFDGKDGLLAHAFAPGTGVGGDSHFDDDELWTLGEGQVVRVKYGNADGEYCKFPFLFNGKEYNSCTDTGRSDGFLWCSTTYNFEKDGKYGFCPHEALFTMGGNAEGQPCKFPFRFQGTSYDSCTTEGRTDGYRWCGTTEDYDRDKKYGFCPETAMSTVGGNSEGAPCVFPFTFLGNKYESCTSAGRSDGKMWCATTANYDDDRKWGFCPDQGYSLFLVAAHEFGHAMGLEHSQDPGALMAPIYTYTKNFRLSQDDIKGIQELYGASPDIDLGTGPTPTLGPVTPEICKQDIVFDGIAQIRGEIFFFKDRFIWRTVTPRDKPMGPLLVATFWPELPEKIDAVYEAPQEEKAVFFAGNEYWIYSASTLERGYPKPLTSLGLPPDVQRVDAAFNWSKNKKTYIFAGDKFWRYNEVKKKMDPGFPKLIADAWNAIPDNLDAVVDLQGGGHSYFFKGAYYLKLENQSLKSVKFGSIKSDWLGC
The assay can be described thus: OmniMMP fluorogenic substrate kinetic assay of MMP-2 activity. Format: biochemical. The conditions noted are these: for IC50: 15 µM substrate; for IC50 values (range in words): substrate degradation assay, 64 kDa MMP-2.

Assay [2] addresses T1, 64 kDa MMP-2. The experiment in a line: Gelatinolytic activity of MMP-2 by gelatin zymography. Type of assay: biochemical.
Assay [3] relates to PARP. The conditions noted are these: in vitro; cited from earlier work.
The test system of assay [4] is PARP. The conditions noted are these: in animal models; cited from earlier work.
Setting [5] is: read-out: IC50 ± SD, 10 µM ZnSO4, 50 mM Tris pH 7.6, 10 mM CaCl2, 0.05% Brij-35, 37 °C.
The mark [6] stands for this setting: IC50 ± SD, 10 µM ZnSO4, 50 mM Tris pH 7.6, 10 mM CaCl2, 0.05% Brij-35, 37 °C.
The mark [7] stands for this setting: IC50 ± SD, 1 nM ZnSO4, 50 mM Tris pH 7.6, 37 °C.

Where two headings read alike, the source gives them in different places.

In general, IC50 refers to the concentration that inhibits the measured activity by half. On to `Nc1cccc2c(=O)[nH]ccc12` [5-AIQ, 5-aminoisoquinolinone], for which the IC50 on 64 kDa MMP-2 [1] (setting [5]) came out at 102 ± 34 µM. For the same compound, on 64 kDa MMP-2 [1], the “IC50 values (range in words)” value is “high micromolar range”.

On to `CN(C)c1ccc(O)c2c1C[C@H]1C[C@H]3[C@H](N(C)C)C(O)=C(C(N)=O)C(=O)[C@@]3(O)C(O)=C1C2=O` [Minocycline, minocycline], for which the IC50 on 64 kDa MMP-2 [1] (setting [6]) amounted to 57 ± 6 µM.

In the case of `c1cnc2c(c1)ccc1cccnc12` [o-Phenanthroline, o-phenanthroline], on 64 kDa MMP-2 [1] (setting [7]), half-maximal inhibition (IC50) was put at 116 ± 9 µM.

On to `CN(C)CC(=O)Nc1ccc2[nH]c(=O)c3ccccc3c2c1` [PJ-34, 2-(dimethylamino)-N-(5,6-dihydro-6-oxophenanthridin-2-yl)acetamide], for which the IC50 against 64 kDa MMP-2 [1] (setting [7]) worked out at 27 ± 10 µM; against 64 kDa MMP-2 [1] (setting [6]), 56 ± 14 µM; against 64 kDa MMP-2 [2], 9200 µM. For the same compound, the “IC50 values (range in words)” value at 64 kDa MMP-2 [1] was “high micromolar range”.

On to `C[C@H]1c2cccc(O)c2C(=O)C2=C(O)[C@]3(O)C(=O)C(C(N)=O)=C(O)[C@@H](N(C)C)[C@@H]3[C@@H](O)[C@@H]21` [Doxycycline, doxycycline], for which the values for the IC50 against 64 kDa MMP-2 [1] (setting [7]) and at 64 kDa MMP-2 [1] (setting [6]) were 93 ± 12 µM and 86 ± 13 µM, respectively.

With `Nc1ncnc2c1ncn2[C@@H]1O[C@H](C(=O)N2CCN(CC(=O)Nc3cccc4c3CNC4=O)CC2)[C@@H](O)[C@H]1O` [EB-47, 1-piperazineacetamide-4-[1-(6-amino-9H-purin-9-yl)-1-deoxy-D-ribofuranuron]-N-(2,3-dihydro-1H-isoindol-4-yl)-1-one], the IC50 at 64 kDa MMP-2 [1] (setting [5]) was above 3000 µM. In addition, the “IC50 values (range in words)” value at 64 kDa MMP-2 [1] is given as “millimolar range”.

With `NC(=O)c1cccc(N)c1` [3-AB, 3-Aminobenzamide], the IC50 was 1000 ± 200 µM on 64 kDa MMP-2 [1] (setting [7]) and 1760 ± 220 µM on 64 kDa MMP-2 [1] (setting [6]). Also, on 64 kDa MMP-2 [1], the “IC50 values (range in words)” value was “millimolar range”. Further, the “potency for PARP inhibition” value was “micromolar range” in the assay on PARP [3] and “millimolar range” in the assay with PARP [4].

These data come from PMC2756481 (Biochemical and biophysical research communications, 2009).
